Laboratory results published in the NIST ThermoML archive (doi:10.1016/j.fluid.2011.03.003).
± gives the expanded uncertainty stated by the source. Each block holds one compound with its values, some of them ahead of it.

Settings: Liquid, Closed cell (Static) method

vapor or sublimation pressure (337.66 K): 24.6 ± 0.09 kPa | vapor or sublimation pressure (342.61 K): 29.5 ± 0.11 kPa | vapor or sublimation pressure (347.62 K): 35.68 ± 0.13 kPa | vapor or sublimation pressure (352.67 K): 42.43 ± 0.15 kPa | vapor or sublimation pressure (357.58 K): 50.12 ± 0.18 kPa | vapor or sublimation pressure (362.57 K): 59 ± 0.2 kPa | vapor or sublimation pressure (382.65 K): 101.3 ± 0.3 kPa
Structure (SMILES): CCC(=O)OC(C)C [1-methylethyl propanoate]

vapor or sublimation pressure (355.15 K): 101.3 ± 1.2 kPa
Structure (SMILES): CC(C)O [propan-2-ol]

vapor or sublimation pressure (413.58 K): 101.3 ± 1.2 kPa
Structure (SMILES): CCC(=O)O [propanoic acid]
